Experimental data: paper PMC10165273, “Itch receptor MRGPRX4 interacts with the receptor activity–modifying proteins” (The Journal of Biological Chemistry, 2023)
Several values for one entry are separate records, joined by “and”; a condition that tells them apart may be missing. Identical values can stand only once.

What was measured:
MRGPRX4 = target: T1, MRGPRX4 (Homo sapiens, UniProt Q96LA9); test: BRET2 β-arrestin2 recruitment to MRGPRX4; type: cell-based; settings: for BRET2 ratio: Fig 5c, MRGPRX4, 100μM ligand, listed as Ng
T1 construct: expressed in transfected cells; host or cells: HEK293T
T1 sequence (Q96LA9 whole entry): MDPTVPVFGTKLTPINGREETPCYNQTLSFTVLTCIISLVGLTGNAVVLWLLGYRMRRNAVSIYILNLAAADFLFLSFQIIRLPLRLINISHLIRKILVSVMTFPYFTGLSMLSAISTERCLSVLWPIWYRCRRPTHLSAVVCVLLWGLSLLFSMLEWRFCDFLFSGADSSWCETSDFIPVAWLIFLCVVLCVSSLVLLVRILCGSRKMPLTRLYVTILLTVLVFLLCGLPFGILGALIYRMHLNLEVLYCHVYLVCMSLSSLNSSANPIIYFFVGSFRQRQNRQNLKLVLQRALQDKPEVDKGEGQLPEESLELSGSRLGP
Source text: (§1) The method for homogenous transfection of β-Arrestin and BRET^2 assay of β-Arrestin recruitment has been described previously ([51]). […] BRET^2 measurements were taken on the BioTek Synergy NEO2 microplate reader.
For MRGPRX4 DNA titration assays, HEK293T cells were cotransfected with either β-Arrestin1 or β-Arrestin2 with increasing amounts of MRGPRX4 (0.5, 1, or 2 pg/cell).
(§2) To measure the time-course of β-Arrestin2 recruitment to MRGPRX4 and CALCRL, the transfection and general procedure described above was followed, with the modification that Prolume Purple was added first, followed by addition of the appropriate agonists ([51]).
(§3) The BRET ratio for each sample was determined by calculating the ratio of the light intensity emitted by the GFP10 (515 nm) (acceptor) over the light intensity emitted by the RLuc3 (395 nm) (donor). Net BRET^2 was determined by subtracting the basal BRET^2 (β-arrestin-RLuc3 only) signal from the BRET^2 signals. All BRET values were normalized to the MRGPRX4-only condition.

mock (βArr2) = test: BRET2 β-arrestin2 recruitment, mock-transfected cells; type: cell-based, human; settings: 100µM Ng
MRGPRX4 + RAMP2 = target: T2, MRGPRX4 + RAMP2 (Homo sapiens, UniProt Q96LA9); test: BRET2 β-arrestin2 recruitment, MRGPRX4 with RAMP2; type: cell-based; settings: for BRET2 ratio, time course (Figure 5e): MRGPRX4 + RAMP2 100μM Ng, listed as Ng
T2 construct: expressed in transfected cells; host or cells: HEK293T
T2 sequence (Q96LA9 whole entry): as above
Description: as §1, §2, §3

[1] = MRGPRX4-GFP10 BRET2 time-course, 100 µM (Fig. 5)

## CC(C)[C@H]1CC[C@H](C(=O)N[C@H](Cc2ccccc2)C(=O)O)CC1 [Nateglinide]
MRGPRX4; 300 s
  BRET2 ratio: 0.01643 and 0.01468 and 0.01593
MRGPRX4; 360 s
  BRET2 ratio: 0.01701 and 0.01469 and 0.01434
MRGPRX4; 420 s
  BRET2 ratio: 0.01667 and 0.01531 and 0.01417
MRGPRX4; 480 s
  BRET2 ratio: 0.01658 and 0.0139 and 0.01409
MRGPRX4; 540 s
  BRET2 ratio: 0.01614 and 0.01397 and 0.01412
MRGPRX4; 600 s
  BRET2 ratio: 0.01601 and 0.01404 and 0.013
MRGPRX4; 660 s
  BRET2 ratio: 0.0171 and 0.01418 and 0.0126
MRGPRX4; 720 s
  BRET2 ratio: 0.01525 and 0.01442 and 0.01263
MRGPRX4; 780 s
  BRET2 ratio: 0.01511 and 0.01318 and 0.01349
MRGPRX4; 840 s
  BRET2 ratio: 0.01493 and 0.01394 and 0.01155
MRGPRX4; 900 s
  BRET2 ratio: 0.01482 and 0.01445 and 0.01282
MRGPRX4; 960 s
  BRET2 ratio: 0.01446 and 0.01322 and 0.01117
MRGPRX4; 1020 s
  BRET2 ratio: 0.01461 and 0.01265 and 0.01275
MRGPRX4; 1080 s
  BRET2 ratio: 0.01404 and 0.01402 and 0.01514
MRGPRX4; 1140 s
  BRET2 ratio: 0.01394 and 0.01316 and 0.01206
MRGPRX4; 1200 s
  BRET2 ratio: 0.01452 and 0.0141 and 0.01263
MRGPRX4; 1260 s
  BRET2 ratio: 0.01409 and 0.01389 and 0.01057
MRGPRX4; 1320 s
  BRET2 ratio: 0.01336 and 0.01334 and 0.0149
MRGPRX4; 1380 s
  BRET2 ratio: 0.01171 and 0.01208 and 0.01329
MRGPRX4; MRGPRX4, 100μM Ng
  normalized β-arrestin2 recruitment BRET2 signal (Figure 5f): 1
MRGPRX4; [1]
  Kfast: 0.008519
  Kslow: 0.002534
  Rate constant ratio: 3.361
  Tau (fast): 117.4
  Tau (slow): 394.6
  two-phase decay Plateau: 0.004639
  two-phase decay x0: 56.70
  two-phase decay y0: 0.01291
MRGPRX4; time course (Fig. 5C)
  time of peak β-arrestin2 recruitment to MRGPRX4: 3 min
Mock (βArr2)
  β-arrestin recruitment BRET2 signal (Figure 5d): -0.01563
MRGPRX4 + RAMP2; 60 seconds
  BRET2 ratio, time course (Figure 5e): 0.009668 and 0.00973 and 0.009697
MRGPRX4 + RAMP2; 120 seconds
  BRET2 ratio, time course (Figure 5e): 0.01023 and 0.01 and 0.01054
MRGPRX4 + RAMP2; 180 seconds
  BRET2 ratio, time course (Figure 5e): 0.01074 and 0.009771 and 0.01057
MRGPRX4 + RAMP2; 240 seconds
  BRET2 ratio, time course (Figure 5e): 0.01008 and 0.0101 and 0.01015
MRGPRX4 + RAMP2; 300 seconds
  BRET2 ratio, time course (Figure 5e): 0.009689 and 0.009979 and 0.01017
MRGPRX4 + RAMP2; 360 seconds
  BRET2 ratio, time course (Figure 5e): 0.009793 and 0.009837 and 0.01091
MRGPRX4 + RAMP2; 420 seconds
  BRET2 ratio, time course (Figure 5e): 0.009697 and 0.01031 and 0.01076
MRGPRX4 + RAMP2; 480 seconds
  BRET2 ratio, time course (Figure 5e): 0.00993 and 0.009604 and 0.009499
MRGPRX4 + RAMP2; 540 seconds
  BRET2 ratio, time course (Figure 5e): 0.00961 and 0.009808 and 0.01044
MRGPRX4 + RAMP2; 600 seconds
  BRET2 ratio, time course (Figure 5e): 0.01026 and 0.01047 and 0.00952
MRGPRX4 + RAMP2; 660 seconds
  BRET2 ratio, time course (Figure 5e): 0.009244
MRGPRX4 + RAMP2; RAMP2 coexpression vs MRGPRX4 alone (Fig. 5F)
  decrease in β-arrestin2 recruitment upon nateglinide treatment: 73%
